Assay results taken from paper PMC10711165, “DNA conformational dynamics in the context-dependent non-CG CHH methylation by plant methyltransferase DRM2” (The Journal of Biological Chemistry, 2023).

Target: T1, DRM2 MTase domain (DOMAINS REARRANGED METHYLTRANSFERASE 2) (Arabidopsis thaliana, UniProt Q9M548)
T1 construct: MTase domain, residues 270-626, His6-SUMO tag cleaved by ULP1, expressed in E. coli BL21 DE3 (RIL); residues 275-626 traced in crystal
T1 sequence (Q9M548 270-626): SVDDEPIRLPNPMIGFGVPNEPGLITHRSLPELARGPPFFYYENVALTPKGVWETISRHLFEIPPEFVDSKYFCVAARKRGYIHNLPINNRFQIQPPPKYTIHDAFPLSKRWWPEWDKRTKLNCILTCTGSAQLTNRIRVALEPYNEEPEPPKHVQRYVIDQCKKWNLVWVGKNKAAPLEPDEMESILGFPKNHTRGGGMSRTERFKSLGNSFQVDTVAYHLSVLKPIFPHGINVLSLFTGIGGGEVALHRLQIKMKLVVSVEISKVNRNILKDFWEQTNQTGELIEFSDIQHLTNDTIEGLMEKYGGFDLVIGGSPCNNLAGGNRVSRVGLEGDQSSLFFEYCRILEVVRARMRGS
Experiment: X-ray crystallography, […] A
Type: binding
Conditions: covalent complex of protein C587 with 18-mer 5-fluorocytosine CTA DNA duplex; SAH at the cofactor site; crystals at 4 °C, 1 mM SAH

Structure (SMILES): Nc1ncnc2c1ncn2[C@@H]1O[C@H](CSCC[C@H](N)C(=O)O)[C@@H](O)[C@H]1O [S-adenosyl-homocysteine]
- X-ray crystallography, 2.91 A: The crystal structure of the DRM2-CTA complex bound to cofactor by-product S-adenosyl-homocysteine (SAH)
